Read-outs that look alike come from different tables or passages of the source.
Legend:
[1] = test system: influenza virus A/PR/8/34; experiment: Time-of-addition assay; format: cell-based, Type A influenza virus H1N1 (PR/8/34); details: 30 μM, MOI 0.01
Description: We performed a time-of-addition assay to verify the effect of the prenyl group position on viral growth inhibition. Figure 7A,B show virus viability when exposed to each prenylated naringenin for each time duration. […] In previous studies, inhibitory effects differed depending on the flavonoid backbone. The anti-influenza virus effect depends on the position of the prenyl group, which is a novel observation of the present study.
Figure 7 Effect of prenylated naringenin on virus viability. (A) 8-PN and 6-PN (30 μM). (B) Schedule of the experiment. Cells were infected with influenza virus A/PR/8/34 at a multiplicity of infection of 0.01 in 24-well plates. After infection at each time point, the cells were harvested and viruses were assayed using a focus-forming reduction assay. […] Data are representative of three independent experiments. Standard deviation bars indicate each bar graph (*** p < 0.001, ** p < 0.01).
We conducted a time-of-addition assay as previously described. DMEM containing prenylated naringenin (30 μM) was added at −1–0 h (adsorption), 0–8 h (replication), 0–4 h, 0–2 h, 2–4 h, 4–8 h, 4–6 h, and 6–8 h. Furuta et al. estimated the intracellular cycle of infected cells before extracellular budding to be 8 h, and growth stages were assumed to occur at 2 h intervals.

[2] = test system: MDCK cells; experiment: Intracellular distribution by fluorescence microscopy of fixed cells; format: cell-based, canine; details: 30 μM, 180 min exposure, fixed with 4% paraformaldehyde, DAPI
Protocol: Cells cultured on glass plates were exposed to a concentration of 30 μM for 180 min. The exposed cells were washed with PBS and the compounds were removed from the medium. The cells were then fixed with 4% paraformaldehyde and observed under a fluorescence microscope. […] The amount of naringenin taken up by the cells may be small. Moreover, fluorescence was detected for prenylated naringenin.
Figure 4 Analysis of prenylated naringenin and naringenin fluorescence distribution by imaging. After removing the medium, cells were treated with 30 μM compound for 180 min and fixed with 4% paraformaldehyde. Fixed cells were stained with DAPI (blue). These images show fluorescence of 8-prenylnaringenin (8-PN; A), 6-prenylnaringenin (6-PN; B), and naringenin (C). Scale bars = 50 μm.
Cells were cultured on glass plates and incubated in a medium supplemented with the compound for 180 min. They were then washed and fixed with 4% paraformaldehyde for 30 min. After washing with PBS, DAPI staining was performed. Intracellular distribution was photographed and observed using an inverted fluorescence phase-contrast microscope (BZ-X800, Keyence, Osaka, Japan).

[3] = test system: MDCK cells; experiment: Efflux of prenylated naringenin after intracellular saturation; format: cell-based, canine; details: for Release of intracellular compound from the cell: after 180 min exposure, compound-free DMEM containing 1% FBS, 0-240 min; for Fluorescence intensity change after 120 min culture in compound-free medium compared to 0 min: cells saturated by 180 min exposure, then DMEM containing 1% FBS for 120 min
Protocol: Based on our results, we examined the kinetics of intracellular prenylated naringenin in Dulbecco’s Modified Eagle Medium (DMEM) containing 1% fetal bovine serum (FBS). […] The intracellular kinetics changed greatly depending on the position of the prenyl group. After 120 min of culturing in the medium, the fluorescence intensity of 8-PN and 6-PN increased approximately 1.6-fold and 9.4-fold, respectively, compared to that at 0 min (Figure 6).
Figure 5 Efflux of prenylated naringenin after intracellular saturation. The amount of the compound in the cells was saturated by exposure for 180 min, and the cells were cultured in Dulbecco’s Modified Eagle Medium (DMEM) for 0, 120, and 240 min. After removing the medium, cells were fixed with 4% paraformaldehyde and stained with DAPI (blue). These images show 8-PN (A) and 6-PN (B) fluorescence. Scale bars = 50 μm.
Figure 6 Efflux and fluorescence intensity of intracellular prenylated naringenins. Fluorescence intensity of 8-PN and 6-PN from Figure 5. The standard deviation bars are indicated on each bar graph. *** p < 0.001.

[4] = test system: MDCK cells; experiment: Cellular uptake by fluorescence microscopy; details: 30 μM compound, phenol red-free medium, 60-360 min, about 20 cells per time point
[5] = test system: influenza virus A/PR/8/34; experiment: microbe, parasite or virus in culture; format: cell-based, Type A influenza virus H1N1 (PR/8/34); details: for SI (Selectivity index = CC50/IC50): CC50 50% cytotoxicity concentration in MDCK cells (MTT), IC50 against A/PR/8/34
[6] = A/PR/8/34 strain in MDCK cells, mean ± SD of three independent experiments, ND = not detected

Compound | SI (Selectivity index = CC50/IC50) [5] | IC50 ([5]; PR/8, MDCK) | melting point | IC50 [5, 6] | other results
CC(C)=CCc1c(O)cc2c(c1O)C(=O)C[C@@H](c1ccc(O)cc1)O2 [6-PN, 6-prenylnaringenin] | 5.5 | 38 ± 4.7 µM | – | – | Inhibition of virus growth, 2 h exposure (4–6 h after infection) [1]: high inhibition tendency; Inhibition of virus growth, late stage (6–8 h) [1]: block the late stage of viral growth; Intracellular distribution of fluorescence [2]: localize to the cytoplasmic periphery; Release of intracellular compound from the cell [3]: released relatively quickly; Fluorescence intensity change after 120 min culture in compound-free medium compared to 0 min [3]: ~9.4 fold; Fluorescence intensity (intracellular uptake) [4]: high fluorescence intensity
CC1(C)OC1Cc1c(O)cc(O)c2c1OC(c1ccc(O)cc1)CC2=O (stereo not drawn) [1a] | 2.7 | 59 ± 9 µM | 191.5 to 193 °C | – | –
CCC(CC)O[C@@H]1C=C(C(=O)O)C[C@H](N)[C@H]1NC(C)=O [oseltamivir acid, reference compound] | – | 0.002 µM | – | – | –
C=CCc1c(O)cc2c(c1O)C(=O)C[C@@H](c1ccc(O)cc1)O2 (racemic) [2a, 6-allylnaringenin] | 0.8 | 103 ± 3.8 µM | – | weaker activities than 6-PN | –
C=C(C)C(Cc1c(O)cc(O)c2c1OC(c1ccc(O)cc1)CC2=O)OC(C)=O (stereo not drawn) [1b] | – | – | 189 to 191.5 °C | lost and not active | –
CC(C)CCc1c(O)cc2c(c1O)C(=O)CC(c1ccc(O)cc1)O2 (stereo not drawn) [2b] | 1.3 | 58 ± 15.2 µM | – | weaker activities than 6-PN | –
CC(C)=CCc1c(O)cc(O)c2c1O[C@H](c1ccc(O)cc1)CC2=O [8-PN, 8-prenylnaringenin] | 4.9 | 24 ± 0.6 µM | – | – | Inhibition of virus growth, exposure during virus adsorption period (−1–0 h) [1]: high inhibitory effect; Inhibition of virus growth, late stage (6–8 h) [1]: block the late stage of viral growth; Intracellular distribution of fluorescence [2]: distributed mostly in the cytoplasm and nucleus; Release of intracellular compound from the cell [3]: released from the cell slowly; Fluorescence intensity change after 120 min culture in compound-free medium compared to 0 min [3]: approximately 1.6 fold; Fluorescence intensity (intracellular uptake) [4]: high fluorescence intensity
CC(C)CCc1c(O)cc(O)c2c1OC(c1ccc(O)cc1)CC2=O (stereo not drawn) [1d] | 3.0 | 61 ± 14 µM | – | – | –
(±)-Naringenin [reference compound] | 4.9 | – | – | – | IC50 ([5]; A/PR/8/34 strain in MDCK cells, mean ± SD of three independent experiments, ND = not detected, read-out: IC50): 290 ± 16.2 µM
CC(=O)Oc1ccc(C2CC(=O)c3c(O)cc(OC(C)=O)c(CCC(C)C)c3O2)cc1 (stereo not drawn) [1c] | 6.3 | 42 ± 2.1 µM | – | – | –
O=C1CC(c2ccc(O)cc2)Oc2cc(O)c(CC=C3CCCCC3)c(O)c21 (stereo not drawn) [2c] | – | – | 204.4 to 205.2 °C | not detected | –
O=C1CC(c2ccc(O)cc2)Oc2cc(O)c(CCC3CCCCC3)c(O)c21 (stereo not drawn) [2d] | – | – | 213.3 to 215.3 °C | not detected | –
CC(=O)Oc1ccc(C2CC(=O)c3c(O)cc(OC(C)=O)cc3O2)cc1 (stereo not drawn) [Naringenin-4′,7′-diacetate] | – | – | – | – | IC50 ([5]; A/PR/8/34 strain in MDCK cells, mean ± SD of three independent experiments, ND = not detected, listed as naringenin-4′,7-diacetate): markedly lost its anti-influenza activity; IC50 ([5]; A/PR/8/34 strain in MDCK cells, mean ± SD of three independent experiments, ND = not detected, listed as naringenin-4′,7′-diacetate): lost its activity
CC(=O)OC(Cc1c(O)cc(O)c2c1OC(c1ccc(O)cc1)CC2=O)C(C)C (stereo not drawn) [1e] | – | – | 155 to 156 °C | lost and not active | –
